In patent US20260184702A1, “SYNTHESIS, PHARMACOLOGY AND USE OF NEW WATER-SOLUBLE AND SELECTIVE FMS-LIKE TYROSINE KINASE3 (FLT3) INHIBITORS” (Universität Regensburg, priority 2022, published 2026):
In brackets after ≈: the same amount, converted by molar mass. Entries after “also recorded” stand apart in the source; their conditions may differ. Structures can show the parent of a compound that is named as a salt.

Key:
[1] = Solubility test by UV-Vis spectroscopy of saturated solutions; format: physicochemical; settings: saturated solution; for Solubility Water: ultrapure water
Protocol: All UV-Vis measurements were carried out with an Agilent Cary 60 UV-Vis 2.00 between 800-200 nm. The absorbance was measured with a scan rate of 300.0 nm/min, a data interval of 0.50 nm and an UV-Vis Average Time of 0.10 s. For all measurements a cuvette with 10 mm light path was used. A calibration curve was plotted from several different concentrations and the solubility of the respective compound was determined by measuring the absorbance of a diluted saturated solution. As a blank curve a mixture of ultrapure water and ethanol in a ratio of 1:1 or 5:95 was recorded. For the calibration curve a 100 μM or a 10 μM solution of the compound in an ultrapure water:ethanol (1:1) or (5:95)-mixture was prepared and diluted to obtain at least 6 concentrations. […] The supernatant was taken using a syringe and filtered through a syringe filter (RC Membrane). The saturated solution was diluted with ultrapure water and ethanol to obtain an appropriate concentration in a water:ethanol (1:1) or (5:95)-mixture. The long wave absorbance maximum was used for determination of the solubility (mean values, determination in triplicate). […] By plotting the concentration of the solution against the absorbance values at the previously determined wavelength maximum a calibration curve was obtained (FIG. 1B).

[2] = In vivo MTD study in non-tumor bearing NOD/SCID mice
Protocol: . Group information and dosing details can be seen in the following Table 7.
. Acclimatization occurred for at least 14 days. […] Dosing of 34c was done as a solution in deionized water, initiated on day 1 and continued for 5 days. One mouse in the 50 mg/kg po group and one in the 75 mg/kg po group lost more weight than 10% in the dosing phase of the study. The weight loss in the 50 mg/kg group was observed after receiving three doses of 34c and after receiving four doses of 34c in the […]. A dosing break was made until the end of dosing for both mice and after a couple of days during the 10-day observation period both mice regained their weight. The body weight was measured daily for all three oral treatment groups for the 5 days of dosing and the following 10-day observational period. The mean relative body weight of the oral treatment group can be seen in FIG. 2. […] Since this observation was made only after dosing, it can be considered it was not caused by the compound.

[3] = system: subcutaneous MV4-11 CDX model; assay: In vivo efficacy study in subcutaneous MV4-11 CDX model in NOD/SCID mice; settings: for number of living subjects, day of study 5 / number of living subjects, day of study 6 / number of living subjects, day of study 8 / number of living subjects, day of study 13 / number of living subjects, day of study 26 / number of living subjects, day of study 36: 5 mice
[4] = target: T1, c-KIT (Homo sapiens, UniProt P10721); assay: Cellular c-KIT phosphorylation assay in Mo7e cells (sandwich-ELISA); format: cell-based; settings: Mo7e cells, 90 min compound, SCF stimulation; read-out: IC50 [nM] inhibition of c-KIT in phosphorylation assay
T1 construct: expresses endogenously a high level of wild-type c-KIT; endogenous in cells; host or cells: Mo7e (human acute megakaryoblastic leukemia)
Protocol: In the cellular c-KIT phosphorylation assay the human acute megakaryoblastic leukemia cell line Mo7e was used, which expresses endogenously a high level of wild-type c-KIT. Stimulation of these cells with human stem cell factor (SCF) results in receptor tyrosine autophosphorylation. Mo7e cells were plated in RPMI supplemented with 20% FCS and 10 ng/ml GM-CSF in multiwell cell culture plates. After serum- and growth factor-starvation overnight cells were incubated with compounds (90 min at 37° C.) in serum-free medium. […] For stimulation, cells were treated with 100 ng/ml SCF for 3 min at room temperature. After cell lysis quantification of receptor autophosphorylation was assessed in 96 well plates via sandwich-ELISA using a kinase specific capture antibody and an anti-phosphotyrosine detection antibody.

[5] = target: T2, human FLT3-ITD (Homo sapiens, UniProt P36888); assay: Cellular FLT3-ITD phosphorylation assay in MEF-FLT3-ITD cells (sandwich-ELISA); format: cell-based; settings: 90 min compound, FLT3-ligand stimulation, read-out: IC50 FLT3-ITD [nM] in phosphorylation assay
T2 sequence (P36888 1-993): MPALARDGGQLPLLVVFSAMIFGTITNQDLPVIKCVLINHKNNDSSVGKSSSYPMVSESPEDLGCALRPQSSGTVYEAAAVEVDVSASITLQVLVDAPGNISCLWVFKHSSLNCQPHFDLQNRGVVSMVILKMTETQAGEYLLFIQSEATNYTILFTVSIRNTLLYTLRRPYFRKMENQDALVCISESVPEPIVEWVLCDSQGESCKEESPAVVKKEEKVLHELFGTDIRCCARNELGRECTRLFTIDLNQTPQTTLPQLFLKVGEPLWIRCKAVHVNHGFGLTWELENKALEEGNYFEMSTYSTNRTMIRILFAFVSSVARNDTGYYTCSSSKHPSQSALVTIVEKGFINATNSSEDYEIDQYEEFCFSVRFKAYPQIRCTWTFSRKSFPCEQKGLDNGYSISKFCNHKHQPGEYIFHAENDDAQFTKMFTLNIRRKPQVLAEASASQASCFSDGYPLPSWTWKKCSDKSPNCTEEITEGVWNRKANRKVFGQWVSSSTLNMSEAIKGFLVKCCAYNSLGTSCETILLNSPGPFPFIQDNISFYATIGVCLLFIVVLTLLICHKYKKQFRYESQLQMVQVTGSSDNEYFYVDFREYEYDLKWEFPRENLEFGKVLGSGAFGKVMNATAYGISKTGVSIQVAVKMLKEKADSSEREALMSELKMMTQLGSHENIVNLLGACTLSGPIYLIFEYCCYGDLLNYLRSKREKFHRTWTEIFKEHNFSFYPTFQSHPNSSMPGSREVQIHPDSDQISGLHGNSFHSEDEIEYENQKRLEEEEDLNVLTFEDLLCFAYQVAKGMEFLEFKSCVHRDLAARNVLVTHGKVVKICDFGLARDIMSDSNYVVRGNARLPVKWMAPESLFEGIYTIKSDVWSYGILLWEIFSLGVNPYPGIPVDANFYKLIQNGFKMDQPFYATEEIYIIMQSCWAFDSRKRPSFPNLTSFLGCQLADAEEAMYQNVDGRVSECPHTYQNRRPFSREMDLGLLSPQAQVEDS
Protocol: In the cellular FLT3-ITD phosphorylation assay the murine embryonal fibroblast cell line (MEF) was used, which expresses a high level of exogenously introduced full-length human FLT3-ITD. Stimulation of these cells with human FLT3-Ligand results in receptor tyrosine autophosphorylation. MEF-FLT3-ITD cells were plated in DMEM supplemented with […] in multiwell cell culture plates. After serum-starvation overnight cells were incubated with compounds (90 min at 37° C.) in serum-free medium. […] For stimulation, cells were treated with 50 ng/ml FLT3-ligand for 5 min at room temperature. After cell lysis quantification of receptor autophosphorylation was assessed in 96 well plates via sandwich-ELISA using a kinase specific capture antibody and an antiphosphotyrosine detection antibody.

[6] = system: EOL-1 (acute myeloid eosinophilic leukemia); assay: CellTiter-Blue Cell Viability Assay, EOL-1; format: cell-based; settings: Homo sapiens, EOL1
Protocol: (§1) EOL-1 (acute myeloid eosinophilic leukemia), MOLM-13 (acute myeloid leukemia), MONO-MAC-1 (acute monocytic leukemia), and MONO-MVAC-6 (acute monocytic leukemia). In vitro screening was performed by Charles River using the CellTiter-Blue® Cell Viability Assay.

[7] = system: MOLM-13 (acute myeloid leukemia); assay: CellTiter-Blue Cell Viability Assay, MOLM-13; format: cell-based; settings: Homo sapiens
Protocol: as §1

[8] = system: MONO-MAC-1 (acute monocytic leukemia); assay: CellTiter-Blue Cell Viability Assay, MONO-MAC-1; format: cell-based
Protocol: as §1

[9] = system: MONO-MAC-6 (acute monocytic leukemia); assay: CellTiter-Blue Cell Viability Assay, MONO-MAC-6; format: cell-based; settings: Homo sapiens
Protocol: as §1

[10] = system: four hematological cell lines; assay: CellTiter-Blue Cell Viability Assay, all four hematological cell lines; format: cell-based; settings: geometric mean over EOL-1, MOLM-13, MONO-MAC-1, MONO-MAC-6; read-out: IC50 [μM] Geomean
Protocol: as §1

[11] = Solubility test by UV-Vis spectroscopy of saturated solutions; format: physicochemical; settings: solvent DMSO

T1 sequence (P10721 26-976): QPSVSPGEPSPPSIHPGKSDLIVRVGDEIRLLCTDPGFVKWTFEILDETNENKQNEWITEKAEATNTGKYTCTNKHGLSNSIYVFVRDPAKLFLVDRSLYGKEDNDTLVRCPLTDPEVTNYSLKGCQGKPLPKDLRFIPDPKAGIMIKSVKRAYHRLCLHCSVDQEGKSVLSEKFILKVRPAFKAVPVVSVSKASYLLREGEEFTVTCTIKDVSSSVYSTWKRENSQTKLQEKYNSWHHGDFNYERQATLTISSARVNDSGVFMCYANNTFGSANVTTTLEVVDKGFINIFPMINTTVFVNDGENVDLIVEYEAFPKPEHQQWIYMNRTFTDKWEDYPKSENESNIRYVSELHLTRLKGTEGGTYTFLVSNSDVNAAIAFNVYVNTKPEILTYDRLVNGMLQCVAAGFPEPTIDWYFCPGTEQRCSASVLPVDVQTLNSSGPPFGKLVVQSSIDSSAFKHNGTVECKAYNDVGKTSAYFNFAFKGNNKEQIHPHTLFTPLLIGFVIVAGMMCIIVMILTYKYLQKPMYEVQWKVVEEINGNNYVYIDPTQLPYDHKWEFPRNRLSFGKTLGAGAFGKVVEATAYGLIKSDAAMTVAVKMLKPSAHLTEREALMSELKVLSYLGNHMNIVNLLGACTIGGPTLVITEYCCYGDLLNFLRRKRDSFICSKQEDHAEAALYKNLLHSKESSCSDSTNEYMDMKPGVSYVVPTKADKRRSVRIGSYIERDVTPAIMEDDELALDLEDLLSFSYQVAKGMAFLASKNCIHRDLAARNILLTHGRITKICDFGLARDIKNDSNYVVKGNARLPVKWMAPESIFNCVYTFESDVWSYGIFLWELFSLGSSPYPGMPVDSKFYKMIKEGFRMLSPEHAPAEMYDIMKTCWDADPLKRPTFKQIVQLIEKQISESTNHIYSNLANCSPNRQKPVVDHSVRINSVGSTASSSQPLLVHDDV

Compound: CN(C)Cc1c(O)ccc2[nH]c(C(=O)c3cc4cc(NC(=O)Nc5cc(C(C)(C)C)on5)ccc4o3)cc12 [Compound 34c, 1-(5-(tert-Butyl)isoxazol-3-yl)-3-(2-(4-(dimethylamino)methyl)-5-hydroxy-1H-indole-2-carbonyl)benzofuran-5-yl)urea Hydrochloride]
- Solubility Ethanol ([1]; Hydrochloride): 2380 µg/mL
- Solubility Water ([1]; Hydrochloride): 5770 µg/mL
- clinical signs ([2]; 20 mg/kg and 50 mg/kg po treatment groups): no clinical signs observed
- clinical signs ([2]; 75 mg/kg po, the mouse which lost weight, noticed only after dosing, considered not caused by the compound): swelling of the right hind limb and foot
- possible (tolerated) dose according to tolerability study ([2]; female, NOD/SCID, mouse, in vivo, po, 5 days): up to 75 mg/kg
- body weight loss in the dosing phase ([2]; one mouse in the 50 mg/kg po group and one in the 75 mg/kg po group, daily, 5 days): > 10%
- first death (day of study) ([3]; 20 mg/kg po daily 5 days): 9 days
- study day after which 1 mouse had to be sacrificed ([3]; 20 mg/kg po daily 5 days (treatment group 2)): 20 days
- number of living subjects, day of study 5 ([3]; 20 mg/kg po daily 5 days): 5
- number of living subjects, day of study 6 ([3]; 20 mg/kg po daily 5 days): 5
- number of living subjects, day of study 8 ([3]; 20 mg/kg po daily 5 days): 5
- number of living subjects, day of study 13 ([3]; 20 mg/kg po daily 5 days): 4
- number of living subjects, day of study 26 ([3]; 20 mg/kg po daily 5 days): 4
- number of living subjects, day of study 36 ([3]; 20 mg/kg po daily 5 days): 0
- relative tumor volume, compared with reference compounds ([3]; 20 mg/kg po daily 5 days, Midostaurin 50 mg/kg, Hydrochloride): better results regarding tumor volume measurements than Midostaurin; also recorded: higher efficiency than midostaurin
- number of living subjects, day of study 5 ([3]; 50 mg/kg po daily 5 days): 5
- number of living subjects, day of study 6 ([3]; 50 mg/kg po daily 5 days): 5
- number of living subjects, day of study 8 ([3]; 50 mg/kg po daily 5 days): 5
- number of living subjects, day of study 13 ([3]; 50 mg/kg po daily 5 days): 5
- number of living subjects, day of study 26 ([3]; 50 mg/kg po daily 5 days): 5
- number of living subjects, day of study 36 ([3]; 50 mg/kg po daily 5 days): 5
- deaths until day 36 ([3]; 50 mg/kg po daily 5 days, Hydrochloride): No deaths were observed; also recorded: no deaths were noted
- relative tumor volume, compared with reference compounds ([3]; 50 mg/kg po daily 5 days, references 50 mg/kg, Hydrochloride): similarly active as Quizartinib; also recorded: much more active than Midostaurin; also recorded: significantly increased efficiency of 34c compared to midostaurin; also recorded: comparable to the efficiency of quizartinib at the same dose
- efficacy and tolerability in terms of overall survival / death counts ([3]; 34c 20 and 50 mg/kg, references 50 mg/kg, po daily 5 days, Hydrochloride): better tolerated; also recorded: significantly better efficacy and tolerability in terms of overall survival than midostaurin; also recorded: significantly better efficiency and tolerability (in terms of overall survival) than quizartinib
- relative body weight loss ([3]; po daily 5 days, 34c 20 and 50 mg/kg, Midostaurin and Quizartinib 50 mg/kg): less relative body weight loss

Compound: CN(C)Cc1c(O)ccc2[nH]c(C(=O)c3cc4cc(NC(=O)Nc5cc(C(C)(C)C)on5)ccc4o3)cc12 [Compound 34b, 1-(5-tert-Butylisoxazol-3-yl)-3-(2-(4-((dimethylamino)methyl)-5-hydroxy-1H-indole-2-carbonyl)benzofuran-5-yl)urea 2,2,2-trifluoroacetate]
- Solubility Ethanol ([1]; 2,2,2-trifluoroacetate): 5940 µg/mL (≈ 11.5 mM)
- Solubility Water ([1]; 2,2,2-trifluoroacetate): <100 µg/mL
- IC50 [4]: 1.8 nM
- IC50 [5]: 3.1 nM
- IC50 [6]: 0.02 nM
- IC50 [7]: 0.0002 µM
- IC50 [8]: 0.1 µM
- IC50 [9]: 0.00065 µM
- IC50 [10]: 0.00074 µM
- Solubility DMSO [11]: Soluble

Compound: CN1CCN(Cc2c(O)ccc3[nH]c(C(=O)c4cc5cc(NC(=O)Nc6cc(C(C)(C)C)on6)ccc5o4)cc23)CC1 [Compound 33b, 1-(5-(tert-Butyl)isoxazol-3-yl)-3-(2-(5-hydroxy-4-((4-methylpiperazin-1-yl)methyl)-1H-indole-2-carbonyl)benzofuran-5-yl)urea bis(2,2,2-trifluoroacetate)]
- Solubility Ethanol ([1]; bis(2,2,2-trifluoroacetate)): 3630 µg/mL (≈ 6.36 mM)
- IC50 [4]: 3.2 nM
- IC50 [5]: 6.9 nM
- IC50 [6]: 0.05 nM
- IC50 [7]: 0.00109 µM
- IC50 [8]: 0.1 µM
- IC50 [9]: 0.00431 µM
- IC50 [10]: 0.00223 µM
